Consider five compounds from patent EP0450515B1, “Haloethyl-substituted steroidal enzyme inhibitors” (MERRELL DOW PHARMACEUTICALS INC., priority 1990, dated 1991).

In this assay the target is T1, aromatase (Homo sapiens, UniProt P11511).
T1 construct: aromatase preparation, usually 50-800 »g of microsomal protein per ml of assay buffer; from tissue; host or cells: microsomes
T1 sequence (P11511 1-503): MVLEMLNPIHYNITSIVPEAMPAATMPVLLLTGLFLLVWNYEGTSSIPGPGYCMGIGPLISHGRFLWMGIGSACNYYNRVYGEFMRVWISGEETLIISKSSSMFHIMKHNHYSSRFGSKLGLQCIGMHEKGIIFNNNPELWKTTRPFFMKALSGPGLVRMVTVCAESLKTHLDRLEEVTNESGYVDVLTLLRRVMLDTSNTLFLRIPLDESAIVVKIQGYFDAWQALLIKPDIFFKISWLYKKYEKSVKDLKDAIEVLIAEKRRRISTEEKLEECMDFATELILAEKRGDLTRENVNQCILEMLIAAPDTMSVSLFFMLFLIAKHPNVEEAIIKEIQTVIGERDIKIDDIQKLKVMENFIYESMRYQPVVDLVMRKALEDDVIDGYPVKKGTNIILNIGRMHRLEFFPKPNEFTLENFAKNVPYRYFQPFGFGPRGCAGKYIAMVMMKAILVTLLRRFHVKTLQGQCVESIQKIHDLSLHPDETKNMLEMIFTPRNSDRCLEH
Briefly: time-dependent aromatase inhibition assay (preincubation of inhibitor with enzyme, Kitz-Wilson analysis). In kind it is biochemical. The following applies: for τ50: half-time of inactivation at infinite inhibitor concentration, Kitz-Wilson plots, time-dependent assay; for kinact/KI: ratio of kcat/Ki (inactivation), index of efficiency of enzyme inactivation. The procedure: In this assay, the inhibitor is preincubated with enzyme prior to assaying for activity in the presence of high substrate levels. A time-related decrease in enzyme activity can be indicative of irreversible binding of the inhibitor with the enzyme.
In the time-dependent assay, an amount of the enzyme inhibitor in 100 »l of the assay buffer described above which will provide assay concentrations which are usually between 1 nM and 10 »M are added to 35 ml centrifuge tubes containing 600 »l of the NADPH generating system. The pre-incubation is started by the addition of 700 »l of aromatase preparation, usually 50-800 »g of microsomal protein per ml of assay buffer. These preparations are mixed using a vortex mixer and incubated for 0, 5, 10, or 20 minutes at 25°C. Then 100 »l of androstenedione (∼6.8 »M) containing 1β-³H androstenedione in assay buffer is added to provide an assay concentration of substrate (0.50 »M) which is at least ten times the Km of androstenedione (0.04 »M). Following vortexing, the enzyme incubation is continued for 10 minutes before being terminated by the addition of chloroform. The amount of radioactivity in the aqueous fraction is determined by scintillation procedures. The enzymatic activity for each concentration of inhibitor at each time period of preincubation is calculated as a percent of the respective vehicle control which is arbitrarily set at 100%. Therefore, the relative present enzyme inhibition is expressed as a percentage: (100 percent minus percent enzyme activity with inhibitor present).
Enzyme kinetic analysis utilized Kitz-Wilson plots for time-dependent assays. These analyses provide estimates of apparent Ki of inactivation which represents the inhibitor concentration required to produce half-maximal rate of enzyme inactivation. The pseudo first-order rate constant for enzyme inactivation (kcat) and the half-time of inactivation (τ₅₀) of infinite inhibitor concentrations were determined.

Compound `C[C@]12CC[C@H]3[C@@H](CCC4=CC(=O)CC[C@@]43C(O)CBr)[C@@H]1CCC2=O` (stereo partly drawn) [HOCHCH₂Br (S):(R)::9:1, 10-(2-Bromo-1-hydroxyethyl)-estr-4-ene-3,17-dione] showed a Ki of 1130 nM and a τ50 of 5.33 min.
Regarding `C[C@]12CC[C@H]3[C@@H](CCC4=CC(=O)CC[C@@]43C(O)CI)[C@@H]1CCC2=O` (stereo partly drawn) [HOCHCH₂I (R):(S)::9:1, 10-(2-Iodo-1-hydroxyethyl)-estr-4-ene-3,17-dione], the Ki stood at 11 nM, the τ50 was 2.22 min and the kinact/KI (usually the maximal inactivation rate divided by the concentration that gives half of it) was 490000 M⁻¹ s⁻¹.
Turning to `C[C@]12CC[C@H]3[C@@H](CCC4=CC(=O)CC[C@@]43C(O)CBr)[C@@H]1CCC2=O` (single isomer, unassigned; diastereomer 10) [HOCHCH₂Br pure (R) diastereomer, 10-(2-Bromo-1-hydroxyethyl)-estr-4-ene-3,17-dione], the Ki stood at 26 nM and the τ50 stood at 4.85 min.
For `C[C@]12CC[C@H]3[C@@H](CCC4=CC(=O)CC[C@@]43C(=O)CBr)[C@@H]1CCC2=O` [O=CCH₂Br, 10-(2-Bromoacetyl)-estr-4-ene-3,17-dione], the Ki was 190 nM, the τ50 was 32.7 min and the kinact/KI was 1860 M⁻¹ s⁻¹.
Consider `C[C@]12CC[C@H]3[C@@H](CCC4=CC(=O)CC[C@@]43C(O)CCl)[C@@H]1CCC2=O` (stereo partly drawn) [HOCHCH₂Cl (R):(S)::9:1, 10-(2-Chloro-1-hydroxyethyl)-estr-4-ene-3,17-dione], for which the Ki stood at 63 nM, the τ50 amounted to 3.60 min and the kinact/KI amounted to 50700 M⁻¹ s⁻¹.
